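Compound exposure: 48 hours, 5 concentrations, 96-well plates. The concentration for 50% growth inhibition is given as GI50. TGI denotes the concentration required for complete inhibition of growth.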
Experiments:
Assay in all cases: growth of human tumour cells (NCI), 48 h
786-0 renal = tested on: 786-0 renal
A498 renal = tested on: A498 renal
A549 NSCLC = tested on: A549 NSCLC
ACHN renal = tested on: ACHN renal
BT-549 breast = tested on: BT-549 breast
CAKI-1 renal = tested on: CAKI-1 renal
CCRF-CEM leukemia = tested on: CCRF-CEM leukemia
COLO 205 colon = tested on: COLO 205 colon
DU-145 prostate = tested on: DU-145 prostate
EKVX NSCLC = tested on: EKVX NSCLC
HCC-2998 colon = tested on: HCC-2998 colon
HCT-116 colon = tested on: HCT-116 colon
HCT-15 colon = tested on: HCT-15 colon
HL-60(TB) leukemia = tested on: HL-60(TB) leukemia
HOP-62 NSCLC = tested on: HOP-62 NSCLC
HOP-92 NSCLC = tested on: HOP-92 NSCLC
HS 578T breast = tested on: HS 578T breast
HT29 colon = tested on: HT29 colon
IGROV1 ovarian = tested on: IGROV1 ovarian
K-562 leukemia = tested on: K-562 leukemia
KM12 colon = tested on: KM12 colon
LOX IMVI melanoma = tested on: LOX IMVI melanoma
M14 melanoma = tested on: M14 melanoma
MALME-3M melanoma = tested on: MALME-3M melanoma
MCF7 breast = tested on: MCF7 breast
MDA-MB-231 breast = tested on: MDA-MB-231 breast
MDA-MB-435 = tested on: MDA-MB-435
MDA-MB-468 breast = tested on: MDA-MB-468 breast
MOLT-4 leukemia = tested on: MOLT-4 leukemia
NCI-H226 lung = tested on: NCI-H226 lung
NCI-H23 lung = tested on: NCI-H23 lung
NCI-H460 lung = tested on: NCI-H460 lung
NCI-H522 lung = tested on: NCI-H522 lung
NCI/ADR-RES ovarian = tested on: NCI/ADR-RES ovarian
OVCAR-3 ovarian = tested on: OVCAR-3 ovarian
OVCAR-4 ovarian = tested on: OVCAR-4 ovarian
OVCAR-5 ovarian = tested on: OVCAR-5 ovarian
OVCAR-8 ovarian = tested on: OVCAR-8 ovarian
PC-3 prostate = tested on: PC-3 prostate
RPMI-8226 leukemia = tested on: RPMI-8226 leukemia
RXF 393 renal = tested on: RXF 393 renal
SF-268 CNS = tested on: SF-268 CNS
SF-295 CNS = tested on: SF-295 CNS
SF-539 CNS = tested on: SF-539 CNS
SK-MEL-2 melanoma = tested on: SK-MEL-2 melanoma
SK-MEL-28 melanoma = tested on: SK-MEL-28 melanoma
SK-MEL-5 melanoma = tested on: SK-MEL-5 melanoma
SK-OV-3 ovarian = tested on: SK-OV-3 ovarian
SN12C renal = tested on: SN12C renal
SNB-19 CNS = tested on: SNB-19 CNS
SNB-75 CNS = tested on: SNB-75 CNS
SR leukemia = tested on: SR leukemia
SW-620 colon = tested on: SW-620 colon
T-47D breast = tested on: T-47D breast
TK-10 renal = tested on: TK-10 renal
U251 CNS = tested on: U251 CNS
UACC-257 melanoma = tested on: UACC-257 melanoma
UACC-62 melanoma = tested on: UACC-62 melanoma
UO-31 renal = tested on: UO-31 renal

**Q.** Which results are given for `COc1ccc2[nH]c(=O)c(CSc3ccccc3Nc3nccc(-c4ccc(C(F)(F)F)cc4)n3)cc2c1`?
**A.** GI50 (786-0 renal): 6.43 µM; TGI (786-0 renal): 19.1 µM; GI50 (A498 renal): 13.8 µM; TGI (A498 renal): 26.7 µM; GI50 (A549 NSCLC): 5.28 µM; TGI (A549 NSCLC): 18.5 µM; GI50 (ACHN renal): 5 µM; TGI (ACHN renal): 16.9 µM; GI50 (BT-549 breast): 6.57 µM; TGI (BT-549 breast): 19.7 µM; GI50 (CAKI-1 renal): 9.2 µM; TGI (CAKI-1 renal): 21.2 µM; GI50 (CCRF-CEM leukemia): 3.84 µM; TGI (CCRF-CEM leukemia): 18.5 µM; GI50 (COLO 205 colon): 11.1 µM; TGI (COLO 205 colon): 23.1 µM; GI50 (DU-145 prostate): 8.89 µM; TGI (DU-145 prostate): 21 µM; GI50 (EKVX NSCLC): 10.3 µM; TGI (EKVX NSCLC): 22.4 µM; GI50 (HCC-2998 colon): 5.27 µM; TGI (HCC-2998 colon): 18.1 µM; GI50 (HCT-116 colon): 3.14 µM; TGI (HCT-116 colon): 10.6 µM; GI50 (HCT-15 colon): 4.69 µM; TGI (HCT-15 colon): 16.7 µM; GI50 (HL-60(TB) leukemia): 8.6 µM; TGI (HL-60(TB) leukemia): 28.2 µM; GI50 (HOP-62 NSCLC): 15.4 µM; TGI (HOP-62 NSCLC): 28.7 µM; GI50 (HOP-92 NSCLC): 2.2 µM; TGI (HOP-92 NSCLC): 17.3 µM; GI50 (HS 578T breast): 13.2 µM; TGI (HS 578T breast): 36.5 µM; GI50 (HT29 colon): 3.64 µM; TGI (HT29 colon): 12.7 µM; GI50 (IGROV1 ovarian): 9.67 µM; TGI (IGROV1 ovarian): 21.4 µM; GI50 (K-562 leukemia): 4.46 µM; TGI (K-562 leukemia): 21.6 µM; GI50 (KM12 colon): 5.6 µM; TGI (KM12 colon): 17.9 µM; GI50 (LOX IMVI melanoma): 3.06 µM; TGI (LOX IMVI melanoma): 11.5 µM; GI50 (M14 melanoma): 11.2 µM; TGI (M14 melanoma): 23.2 µM; GI50 (MALME-3M melanoma): 12 µM; TGI (MALME-3M melanoma): 24.3 µM; GI50 (MCF7 breast): 2.97 µM; TGI (MCF7 breast): 11 µM; GI50 (MDA-MB-231 breast): 11.1 µM; TGI (MDA-MB-231 breast): 23.1 µM; GI50 (MDA-MB-435): 8.95 µM; TGI (MDA-MB-435): 21.1 µM; GI50 (MDA-MB-468 breast): 2.65 µM; TGI (MDA-MB-468 breast): 10.2 µM; GI50 (MOLT-4 leukemia): 3.59 µM; TGI (MOLT-4 leukemia): 15.7 µM; GI50 (NCI-H226 lung): 4.76 µM; TGI (NCI-H226 lung): 18.8 µM; GI50 (NCI-H23 lung): 6.28 µM; TGI (NCI-H23 lung): 19.3 µM; GI50 (NCI-H460 lung): 4.05 µM; TGI (NCI-H460 lung): 14.5 µM; GI50 (NCI-H522 lung): 3.82 µM; TGI (NCI-H522 lung): 16.2 µM; GI50 (NCI/ADR-RES ovarian): 4.32 µM; TGI (NCI/ADR-RES ovarian): 17.5 µM; GI50 (OVCAR-3 ovarian): 3.48 µM; TGI (OVCAR-3 ovarian): 15.2 µM; GI50 (OVCAR-4 ovarian): 3.42 µM; TGI (OVCAR-4 ovarian): 13.7 µM; GI50 (OVCAR-5 ovarian): 13 µM; TGI (OVCAR-5 ovarian): 25.7 µM; GI50 (OVCAR-8 ovarian): 9.59 µM; TGI (OVCAR-8 ovarian): 21.4 µM; GI50 (PC-3 prostate): 3.2 µM; TGI (PC-3 prostate): 12.6 µM; GI50 (RPMI-8226 leukemia): 3.27 µM; TGI (RPMI-8226 leukemia): 15.4 µM; GI50 (RXF 393 renal): 3.03 µM; TGI (RXF 393 renal): 8.62 µM; GI50 (SF-268 CNS): 5.15 µM; TGI (SF-268 CNS): 18.2 µM; GI50 (SF-295 CNS): 10.1 µM; TGI (SF-295 CNS): 21.6 µM; GI50 (SF-539 CNS): 10.3 µM; TGI (SF-539 CNS): 21.9 µM; GI50 (SK-MEL-2 melanoma): 10.8 µM; TGI (SK-MEL-2 melanoma): 22.7 µM; GI50 (SK-MEL-28 melanoma): 11.8 µM; TGI (SK-MEL-28 melanoma): 24.1 µM; GI50 (SK-MEL-5 melanoma): 10.5 µM; TGI (SK-MEL-5 melanoma): 22.2 µM; GI50 (SK-OV-3 ovarian): 15.8 µM; TGI (SK-OV-3 ovarian): 29.3 µM; GI50 (SN12C renal): 3.74 µM; TGI (SN12C renal): 13.1 µM; GI50 (SNB-19 CNS): 13.5 µM; TGI (SNB-19 CNS): 26.3 µM; GI50 (SNB-75 CNS): 12.5 µM; TGI (SNB-75 CNS): 25.5 µM; GI50 (SR leukemia): 2.91 µM; TGI (SR leukemia): 11.1 µM; GI50 (SW-620 colon): 5.43 µM; TGI (SW-620 colon): 18.2 µM; GI50 (T-47D breast): 5.66 µM; TGI (T-47D breast): 20.3 µM; GI50 (TK-10 renal): 17.4 µM; TGI (TK-10 renal): 31.2 µM; GI50 (U251 CNS): 10.5 µM; TGI (U251 CNS): 22.3 µM; GI50 (UACC-257 melanoma): 13 µM; TGI (UACC-257 melanoma): 25.7 µM; GI50 (UACC-62 melanoma): 11.8 µM; TGI (UACC-62 melanoma): 24 µM; GI50 (UO-31 renal): 4.5 µM; TGI (UO-31 renal): 18.1 µM
